# Patent US9381187B2, “Radiation countermeasure agents” (PALOMA PHARMACEUTICALS, INC., priority 2011, dated 2016)
# Assays:
# [1] = tested on: HOS cells (human osteoblast cells); test: Cellular radioprotection, colony formation assay (cell survival after gamma radiation); type: cell-based; details: for survival: HOS cells under radioprotective treatment conditions (FIG. 2); for DRF: in vitro comparison with amifostine, HOS cells, gamma radiation (FIG. 2)
# Procedure: Radiation protection by P529 is evaluated using a human osteoblast cell model (HOS cells). The effect of P529 (10 μM, 4 hr) on cell survival after radiation is assessed; cell survival was measured using the colony formation assay.
# [2] = tested on: C57 mice exposed to gamma radiation; test: Mitigation of radiation effect in vivo (TBI 9 Gy); details: female C57 mice, 9 Gy gamma radiation; ip 100 μl on day 1 and days 3-26
# From the text: Sixteen female C57 mice are exposed to gamma radiation (9 Gy). Group 1 received radiation only (no drug). Group 2 received radiation and P529 as noted in the following schedule: […]
# HOS cells = test: Chromosomal radiation protection, metaphase aberration scoring; type: cell-based, human; details: for Breaks / Fragments / Percent Aberrant Cells / Rings + Dicentrics: Radiation + P529 (25 uM, 12 hrs pre-radiation)
# Procedure: Non-tumorigenic immortalized human osteosarcoma cells (HOS) are exposed to increasing doses of gamma radiation (O-4 Gy; 6.6 Gy/min). Control cells receive no drug; Drug-treated cells receive P529 (25 uM, 12 hrs pre-radiation). Metaphase plates are prepared from control and drug-treated cells (Gupta, Br J Radiol, 59:625 1986). A total of 100 metaphases are examined per group/dose. Aberrant metaphases, chromatid and chromosome breaks, fragments, rings, and dicentrics are scored under a light microscope. Aberrations are identified using criteria given by Savage (J Med Genetics 12:103-122, 1976).
structure (smiles),measurement,setting,value
"COc1ccc(COc2cc3oc(=O)c4cc(C(C)O)ccc4c3cc2OC)cc1 (stereo not shown) [P529, 8-(1-Hydroxy-ethyl)-2-methoxy-3-(4-methoxy-benzyloxy)-benzo[c]chromen-6-one]",dose-reduction factor (DRF),"[1]; HOS cells pretreated 10 μM for 4 hr prior to gamma radiation, at the 0.005 survival fraction (FIG. 1)",1.38
same,survival,[1],0.99
same,DRF,[1],1.34
same,radiation resistance of cells,[1]; pretreated 10 μM for 4 hr prior to radiation exposure,significant radiation resistance
same,mitigation of radiation effect and damage,[2],can mitigate the radiation effect
same,Breaks,HOS cells; dose 0 Gy,.0016 ± .0002
same,Fragments,HOS cells; dose 0 Gy,.007 ± .0009
same,Percent Aberrant Cells,HOS cells; dose 0 Gy,.66 ± .07%
same,Rings + Dicentrics,HOS cells; dose 0 Gy,0.00 ± 0.0
same,Breaks,HOS cells; dose 1 Gy,.0013 ± .0002
same,Fragments,HOS cells; dose 1 Gy,.05 ± .006
same,Percent Aberrant Cells,HOS cells; dose 1 Gy,3.1 ± .033%
same,Rings + Dicentrics,HOS cells; dose 1 Gy,0.00 ± 0.0
same,Breaks,HOS cells; dose 2 Gy,.0018 ± .0002
same,Fragments,HOS cells; dose 2 Gy,.118 ± .022
same,Percent Aberrant Cells,HOS cells; dose 2 Gy,5.0 ± .052%
same,Rings + Dicentrics,HOS cells; dose 2 Gy,.003 ± .0004
same,Breaks,HOS cells; dose 3 Gy,.0022 ± .0003
same,Fragments,HOS cells; dose 3 Gy,.23 ± .028
same,Percent Aberrant Cells,HOS cells; dose 3 Gy,11.4 ± 1.22%
same,Rings + Dicentrics,HOS cells; dose 3 Gy,.005 ± .0004
same,Breaks,HOS cells; dose 4 Gy,.0039 ± .0004
same,Fragments,HOS cells; dose 4 Gy,.30 ± .031
same,Percent Aberrant Cells,HOS cells; dose 4 Gy,19.5 ± 1.29%
same,Rings + Dicentrics,HOS cells; dose 4 Gy,.017 ± .002
same,chromosomal protection from radiation exposure,"HOS cells; human HOS cells, Table 2",can provide chromosomal protection from radiation exposure
"NCCCNCCSP(=O)(O)O [amifostine, reference compound]",survival,[1],0.35
same,DRF,[1],1.45
